Source: patent US20190290729A1, “PHARMACEUTICAL ASSOCIATION OF GROWTH FACTOR RECEPTOR AGONIST AND ADHESION PROTEIN INHIBITOR FOR CONVERTING A NEOPLASTIC CELL INTO A NON-NEOPLASTIC CELL AND USES THEREOF” (HISTIDE AG, priority 2015, published 2019)
Where no end group is shown, it is not given here.

Experiments:
[1] = tested on: human rhabdosarcoma cells; assay: p53 quantification, same procedure, rhabdosarcoma cells; type: cell-based; set-up: P53: unit not given here; conditions: for P53: Table 9, in association with SiRNA Integrin alpha 3+RGDSPC+SiRNA Integrin beta 1+SiRNA Syndecan 1 (SEQ ID NO: 31, 32, 164 to 187)
Method: (§1) The following starting materials and reagents were used: • Type-I collagen sponge was obtained from Sigma®. • PBS 1× was obtained from Gibco®. • MilliQ water: is water characterised in terms of resistivity (typically 18.2 MΩ·cm at 25° C.). • Low glucose Dulbecco's Modified Eagle Medium (DMEM) was obtained from Invitrogen® • Minimum Essential Medium Eagle without ascorbic acid (αMEM) was obtained from Invitrogen®. • All of the cell culture experiments were carried out without any serum in the medium for the first 8 hours of culture. • Osteosarcoma cells: MG63 cells were obtained from ATCC®. These cells were cultured in DMEM (Eagle's Minimum Essential Medium) medium supplemented with 10% fetal calf serum (FCS) and 1% penicillin/streptomycin. All cells were used at a low passage number (passage 10), were subconfluently cultured and were seeded at 10^4 cells/cm^2 for the purpose of the experiments. • Chondrosarcoma cells Hs819.T cells were obtained from ATCC®. These cells were cultured in DMEM (Eagle's Minimum Essential Medium) medium supplemented with 10% fetal calf serum (FCS) and 1% penicillin/streptomycin. All cells were used at a low passage number (passage 10), were subconfluently cultured and were seeded at 10^4 cells/cm^2 for the purpose of the experiments. • Rhabdomyosarcoma cells: A-673 cells were obtained from ATCC®. These cells were cultured in DMEM (Eagle's Minimum Essential Medium) medium supplemented with 10% fetal calf serum (FCS) and 1% penicillin/streptomycin. All cells were used at a low passage number (passage 10), were subconfluently cultured and were seeded at 10^4 cells/cm^2 for the purpose of the experiments. • Adenocarcinoma cells: HCC4006 cells were obtained from ATCC®. These cells were cultured in RPMI-1640 medium (obtained from ATCC®) supplemented with 10% fetal calf serum (FCS) and 1% penicillin/streptomycin. All cells were used at a low passage number (passage 10), were subconfluently cultured and were seeded at 10^4 cells/cm^2 for the purpose of the experiments. • CMFDA is a Cell Tracker Green obtained from Invitrogen®. • DAPI was obtained from Sigma®. • Fetal bovine serum (FBS) was obtained from Gibco®. • Penicillin/streptomycin was obtained from Invitrogen®. • The AlamarBlue® assay was obtained from Molecular Probes®. • Anti phospho-p53 antibody was obtained from Santa Cruz Biotechnology®, • Anti pRB antibody was obtained from Santa Cruz Biotechnology®, • Monoclonal anti-integrin (extracellular domain) αv, α5, α3, α4, β1, β3, β5 and β9 antibodies were obtained from Santa Cruz Biotechnology®, • Cell cytoskeletal filamentous actin (F-actin) was visualized by Alexa Fluor® 488 phalloidin Sigma® labeling. • Monoclonal anti-vinculin antibody (clone hVIN-1, produced in mouse) was obtained from Sigma®.
(§2) • All of the peptides were synthetized using conventional solution and/or solid phase peptide synthesis methods. • All of the experiments were performed with a concentration of 400 ng/mL of GFR-binding compound(s) as defined herein. • All cell culture experiments were performed with cultures on plastic coated with type-I collagen in order to mimic the physiological conditions of the human body. • The compositions of pharmaceutical compositions used in the examples below are summarized in the following table:
(§3) The cells were first fixed for 20 min with 4% paraformaldehyde/PBS at 4° C. After fixation, the cells were permeabilized in PBS containing 1% Triton X-100 for 15 min. Protein immunofluorescent visualization was performed by first treating the cells with 1% (v/v) specific monoclonal antibodies for 1 hour at 37° C. Then the samples were incubated with Alexa Fluor® 568 or 647 (F(ab′)2 fragment of IgG(H+L)) during 30 min at room temperature. The cell nuclei were counterstained in 20 ng/mL DAPI for 10 min at room temperature.
(§4) For this type of quantification the freeware image analysis ImageJ® software was used. […]

[2] = tested on: human rhabdosarcoma cells; assay: pRB quantification, same procedure, rhabdosarcoma cells; type: cell-based; conditions: for pRB: Table 9, in association with SiRNA Integrin alpha 3+RGDSPC+SiRNA Integrin beta 1+SiRNA Syndecan 1 (SEQ ID NO: 31, 32, 164 to 187)
Method: as §1, §2, §3, §4

[3] = Table 8, in association with SiRNA Integrin alpha 3, v, 4 and SiRNA Integrin beta 1
[4] = Table 5, cyclic GFR-binding peptide in association with SiRNA Integrin alpha 3+RGDSPC+SiRNA Integrin beta 1+SiRNA Syndecan 1, 400 ng/mL

Sequence	P53 [1]	pRB [2]	other results
APTGGSATSMLYYDKGVVTYLRKHRGGVVK (Non-cyclic GFR-binding peptide) [SEQ ID NO: 127]			P53 (%) [1, 3]: 33%; pRB (%) [2, 3]: 16%
APTLLNAISMLYFNDKQQIILKKYRLLVVR (Non-cyclic GFR-binding peptide) [SEQ ID NO: 126]			P53 (%) [1, 3]: 41%; pRB (%) [2, 3]: 8%
APVAAKPLSMLYVDKGVVTYDHHKDAAVEE (Non-cyclic GFR-binding peptide) [SEQ ID NO: 132]			P53 (%) [1, 3]: 38%; pRB (%) [2, 3]: 9%
APVKMEPLPTVYYDDMGVPTEQLSNDMVEESGSLDDMGVPT (also: cyclic, ring not given here) [SEQ ID NO: 38225]			P53 (%) [1, 4]: 49%; pRB (%) [2, 4]: 9%
CAAAPASSSVPARLSPISILYIAAAYKQYEDM (Non-cyclic GFR-binding peptide) [SEQ ID NO: 185]	47	8	
CAAPASSSVPARLSPISILYIDAANNVVYKQYEDMVVE (Non-cyclic GFR-binding peptide) [SEQ ID NO: 182]	41	8	
CAAPASSSVPARLSPISILYIDAANNVVYKQYEDMVVEASG (Non-cyclic GFR-binding peptide) [SEQ ID NO: 181]	45	9	
CAAPASSSVPARLSPISLLYIDAANNVVYKQYEDM (Non-cyclic GFR-binding peptide) [SEQ ID NO: 183]	44	13	
CASAAPSSVPQALEPLPIVYYVGRTPKVEQLSNMIVRSSK (Non-cyclic GFR-binding peptide) [SEQ ID NO: 175]	45	7	
CGIPEPSSVPEKMSSLSILFFDENKNVVLKVYPNM (Non-cyclic GFR-binding peptide) [SEQ ID NO: 179]	40	11	
CGIPEPSSVPEKTSSLSLLFFDENKNVVLKVYPNM (Non-cyclic GFR-binding peptide) [SEQ ID NO: 180]	29	9	
CKIPKASSVPTELEPLPIVYYVGRKPKVEQLSNMIVRS (Non-cyclic GFR-binding peptide) [SEQ ID NO: 174]	40	6	
CPARLSPISLLYIDAANNVVYKQYEDM (Non-cyclic GFR-binding peptide) [SEQ ID NO: 184]	39	11	
CTVPKPSSAPTQLSPISILYIDAANNVVYKQYEDMVVRA (Non-cyclic GFR-binding peptide) [SEQ ID NO: 187]	42	9	
CVPQRLSPISILYIDAANNVVYKQYE (Non-cyclic GFR-binding peptide) [SEQ ID NO: 186]	38	12	
CVPTEERSVKVAKVRIKPHQGQHKEVQV (Non-cyclic GFR-binding peptide) [SEQ ID NO: 176]	33	7	
CVPTEESNITMQIMRIKPHQGQHIGEMSFL (Non-cyclic GFR-binding peptide) [SEQ ID NO: 177]	43	8	
EPSSSRVRLEPLTTLYYGGGGGGGEQLSNVVEEHSKDKGVVTY (also: cyclic peptide, ring closure not given here) [SEQ ID NO: 38224]			P53 (%) [1, 4]: 46%; pRB (%) [2, 4]: 8%
EPSSVSQAAEPLPIVYYRIKPHQGQHEQLSNMIVKSSKSSDDMGVPT (also: cyclic peptide, ring closure not given here) [SEQ ID NO: 38226]			P53 (%) [1, 4]: 29%; pRB (%) [2, 4]: 12%
GTPGPAPTKLSAISMLYLDSSNNVILKKYR (Non-cyclic GFR-binding peptide) [SEQ ID NO: 166]	37	10	

Sequence	P53 [1]	pRB [2]	other results
GTPGPAPTKLSAISMLYLDSSNNVILRKHR (Non-cyclic GFR-binding peptide) [SEQ ID NO: 165]	42	9	
GTPGPAPTQLSPISVLYKDDSSNVILKYHY (Non-cyclic GFR-binding peptide) [SEQ ID NO: 31]	34	5	
GTPGPASSAVSQELSAISMLYLGGGLKNYQDM (Non-cyclic GFR-binding peptide) [SEQ ID NO: 32]	46	7	
GTPGPKASSVPTELSPISTLYKDENEKVVLKYHYDM (Non-cyclic GFR-binding peptide) [SEQ ID NO: 168]	51	13	
GTPGPKASSVPTELSPISTLYKDENEKVVLKYHYDMVVEGSGSR (Non-cyclic GFR-binding peptide) [SEQ ID NO: 167]	41	11	
GTPGPPKPSSAPTQLNAISMLYFGGGGGLKKYRDMQHN (Non-cyclic GFR-binding peptide) [SEQ ID NO: 169]	37	8	
GTPGPPSSAPTQLSATSVLYYDDSSNVILRKHRMIVKS (Non-cyclic GFR-binding peptide) [SEQ ID NO: 164]	47	10	
GTPGPRNVQCRPTQVQLSAISTLYLAAALKNYQTLE (Non-cyclic GFR-binding peptide) [SEQ ID NO: 173]	37	15	
GTPGPRNVQCRPTQVQLSAISTLYLEIVRKKPLKNYQTLEDH (Non-cyclic GFR-binding peptide) [SEQ ID NO: 172]	33	12	
IPKASSAPVGQRPVQMRKIDKGVVTYKKATVSSVEESGSLDKGVVTY (not fully specified; also: cyclic, mode of cyclisation not given here) [SEQ ID NO: 38218]			P53 (%) [1, 4]: 36%; pRB (%) [2, 4]: 12%
KASSSRVKMSNITVQIMRIKPHQGQHIGEMSVVEEHASGSHDKGVVTY (not fully specified; also: cyclic, mode of cyclisation not given here) [SEQ ID NO: 38222]			P53 (%) [1, 4]: 52%; pRB (%) [2, 4]: 15%
KASSVPQEERPVQMRKIGGGGGGGKKATVMIVRSSKSSDDMGVPT (not fully specified; also: cyclic, mode of cyclisation not given here) [SEQ ID NO: 38219]			P53 (%) [1, 4]: 38%; pRB (%) [2, 4]: 15%
PTSSAPTDLRSVKMAKVEIVRKKPIFKEVQVDMVVKASGDKGVVTY (not fully specified; also: cyclic peptide) [SEQ ID NO: 38221]			P53 (%) [1, 4]: 48%; pRB (%) [2, 4]: 11%
SRVAARSVKMAKVGGGGGGGKEVQVAAEEH (Non-cyclic GFR-binding peptide) [SEQ ID NO: 136]			P53 (%) [1, 3]: 38%; pRB (%) [2, 3]: 10%
SRVLLRPVQMRKIDKGVVTYKKATVLLEEH (Non-cyclic GFR-binding peptide) [SEQ ID NO: 139]			P53 (%) [1, 3]: 49%; pRB (%) [2, 3]: 18%
TPTSSSPINTLYFDDMGVPTYGKIPSSVVD (Non-cyclic GFR-binding peptide) [SEQ ID NO: 130]			P53 (%) [1, 3]: 48%; pRB (%) [2, 3]: 15%
TQVAARPVQTRKIDDMGVPTKKATVAAEDH (Non-cyclic GFR-binding peptide) [SEQ ID NO: 140]			P53 (%) [1, 3]: 35%; pRB (%) [2, 3]: 17%
VPEAASSLSMLFFEIVRKKPIFLKVYPAATVE (Non-cyclic GFR-binding peptide) [SEQ ID NO: 124]			P53 (%) [1, 3]: 37%; pRB (%) [2, 3]: 12%
VPQAAEPLPMLYYDKGVVTYEQLSNAAVRS (Non-cyclic GFR-binding peptide) [SEQ ID NO: 133]			P53 (%) [1, 3]: 42%; pRB (%) [2, 3]: 7%
